Data published in patent US20230365592A1 (Agios Pharmaceuticals, Inc., priority 2022, published 2023).

target: T1, human PAH with the R408W mutation (Homo sapiens, UniProt P00439, R408W); assay: Cell Based Phenylalanine Flux Assay; conditions: A375 cells expressing R408W PAH; 24 hrs with compound, then 20 µM sepiapterin and 800 µM 13C9,15N-Phenylalanine for 4 hours; 13C-Tyrosine by LC-MS; average where tested multiple times; read-out: AC50;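 note: after compound treatment, cells received sepiapterin plus isotope-labelled Phenylalanine for 4 hours, then labelled Tyrosine in the medium was quantified, 10-point 2-fold dilution series run in duplicate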
T1 construct: expressed in transfected cells
T1 sequence (P00439 1-452 R408W): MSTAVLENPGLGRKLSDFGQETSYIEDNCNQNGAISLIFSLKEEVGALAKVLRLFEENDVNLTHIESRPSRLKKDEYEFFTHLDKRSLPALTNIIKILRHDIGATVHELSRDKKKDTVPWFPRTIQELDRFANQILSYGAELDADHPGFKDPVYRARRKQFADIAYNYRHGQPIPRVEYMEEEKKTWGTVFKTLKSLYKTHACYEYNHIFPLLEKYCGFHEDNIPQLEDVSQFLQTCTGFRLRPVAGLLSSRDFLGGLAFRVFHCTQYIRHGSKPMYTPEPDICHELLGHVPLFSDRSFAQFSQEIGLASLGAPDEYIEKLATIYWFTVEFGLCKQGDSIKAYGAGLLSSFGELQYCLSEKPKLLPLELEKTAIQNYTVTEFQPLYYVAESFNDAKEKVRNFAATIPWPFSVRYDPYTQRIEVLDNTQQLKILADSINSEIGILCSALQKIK

Row | AC50 [µM] | SMILES
1 | 1 to 5 | CC1(c2nnc(N3CCc4[nH]cnc4C3c3cc4c(C(F)F)cccn4n3)o2)CC1 (stereo not shown)
2 | 1 to 5 | c1ccn2nc(C3c4nc[nH]c4CCN3c3nnc(-c4cnccn4)o3)cc2c1 (stereo not shown)
3 | 1 to 5 | CC(C)(O)c1nnc(C(=O)N2CCc3[nH]cnc3C2c2cc3ccc(F)cn3n2)o1 (stereo not shown)

same assay, conditions: A375 cells expressing human PAH R408W; 24 hrs compound incubation; 13C-Tyrosine by LC-MS; average where tested multiple times; read-out: AC50

Row | AC50 [µM] | SMILES
4 | 0.5 to 1 | Cn1cc(-c2nnc(C(=O)N3CCc4[nH]cnc4[C@H]3c3cc4ccccn4n3)s2)cn1 [Example 2045, (S)-(5-(1-methyl-1H-pyrazol-4-yl)-1,3,4-thiadiazol-2-yl)(4-(pyrazolo[1,5-a]pyridin-2-yl)-1,4,6,7-tetrahydro-5H-imidazo[4,5-c]pyridin-5-yl)methanone]
5 | 1 to 5 | FC(F)(F)c1nnc(N2CCc3[nH]cnc3[C@H]2c2cc3cccc(C(F)(F)F)n3n2)o1 [Example 2491, (S)-2-(trifluoromethyl)-5-(4-(7-(trifluoromethyl)pyrazolo[1,5-a]pyridin-2-yl)-1,4,6,7-tetrahydro-5H-imidazo[4,5-c]pyridin-5-yl)-1,3,4-oxadiazole]

same assay, conditions: A375 cells expressing human R408W PAH; 24 hrs compound incubation; 13C-Tyrosine by LC-MS; average where tested multiple times; read-out: AC50

Row | AC50 [µM] | SMILES
6 | 1 to 5 | O=C(c1nnc(-c2ccccn2)o1)N1CCc2[nH]cnc2[C@@H]1c1cc2cccc(F)n2n1 [Example 974, (R)-(4-(7-fluoropyrazolo[1,5-a]pyridin-2-yl)-6,7-dihydro-1H-imidazo[4,5-c]pyridin-5(4H)-yl)(5-(pyridin-2-yl)-1,3,4-oxadiazol-2-yl)methanone]
7 | < 0.5 | Cc1cccn2nc([C@@H]3c4nc[nH]c4CCN3C(=O)c3oc([C@@H](C)O)nc3C(F)F)cc12 [Example 738, (4-(difluoromethyl)-2-((R)-1-hydroxyethyl)oxazol-5-yl)((S)-4-(4-methylpyrazolo[1,5-a]pyridin-2-yl)-6,7-dihydro-1H-imidazo[4,5-c]pyridin-5(4H)-yl)methanone]
8 | > 5 | O=C(c1nnc(-c2ccccn2)o1)N1CCc2[nH]cnc2[C@@H]1c1cc2c(Cl)cccn2n1 [Example 734, (R)-(4-(4-chloropyrazolo[1,5-a]pyridin-2-yl)-6,7-dihydro-1H-imidazo[4,5-c]pyridin-5(4H)-yl)(5-(pyridin-2-yl)-1,3,4-oxadiazol-2-yl)methanone]
9 | > 5 | O=C(c1nnc(C2CC(F)(F)C2)o1)N1CCc2[nH]cnc2[C@@H]1c1cc2c(F)cccn2n1 [Example 1605, (R)-(5-(3,3-difluorocyclobutyl)-1,3,4-oxadiazol-2-yl)(4-(4-fluoropyrazolo[1,5-a]pyridin-2-yl)-6,7-dihydro-1H-imidazo[4,5-c]pyridin-5(4H)-yl)methanone]
10 | < 0.5 | O=C(c1nnc(C2CCC2)o1)N1CCc2[nH]cnc2[C@H]1c1cc2cccc(Cl)n2n1 [Example 1561, (S)-(4-(7-chloropyrazolo[1,5-a]pyridin-2-yl)-6,7-dihydro-1H-imidazo[4,5-c]pyridin-5(4H)-yl)(5-cyclobutyl-1,3,4-oxadiazol-2-yl)methanone]
11 | < 0.5 | O=C(c1nnc(N2CCC(F)CC2)o1)N1CCc2[nH]cnc2[C@H]1c1cc2c(F)cccn2n1 [Example 1014, (S)-(5-(4-fluoropiperidin-1-yl)-1,3,4-oxadiazol-2-yl)(4-(4-fluoropyrazolo[1,5-a]pyridin-2-yl)-6,7-dihydro-1H-imidazo[4,5-c]pyridin-5(4H)-yl)methanone]
12 | 0.5 to 1 | CC1(c2nnc(C(=O)N3CCc4[nH]cnc4[C@H]3c3cc4cccc(C(F)(F)F)n4n3)o2)CC1 [Example 1354, (S)-(5-(1-methylcyclopropyl)-1,3,4-oxadiazol-2-yl)(4-(7-(trifluoromethyl)pyrazolo[1,5-a]pyridin-2-yl)-6,7-dihydro-1H-imidazo[4,5-c]pyridin-5(4H)-yl)methanone]
13 | 1 to 5 | O=C(c1nnc(-c2ccn(C(F)F)n2)o1)N1CCc2[nH]cnc2[C@@H]1c1cc2c(C(F)(F)F)cccn2n1 [Example 908, (R)-(5-(1-(difluoromethyl)-1H-pyrazol-3-yl)-1,3,4-oxadiazol-2-yl)(4-(4-(trifluoromethyl)pyrazolo[1,5-a]pyridin-2-yl)-6,7-dihydro-1H-imidazo[4,5-c]pyridin-5(4H)-yl)methanone]
